PMC8251916 (Chemistry (Weinheim an Der Bergstrasse, Germany), 2021)
Read-outs that look alike come from different tables or passages of the source.

Assays:
T. brucei = assay: Trypanocidal activity, alamarBlue assay; format: cell-based; settings: for EC50: Trypanosoma brucei, 72 h incubation, alamarBlue fluorescence, read-out: absolute EC50 T. brucei
Experimental: Doxorubicin, suramin and miltefosine were used as control compounds.[ ^6b , ^9 ] After incubation with varied concentrations of the compounds for 72 h, cell viability was measured using either an alamarBlue™ assay (for MRC5, HeLa and T. brucei) or MTT assay (for L. major). Absolute EC50 values and selectivity indexes were then calculated from dose‐response curves (Table 2 and S14). […]
Cell culture reagents were purchased from Thermo Fisher Scientific (Waltham, MA, USA) and used as-is. The Dulbecco’s Minimal Essential Medium (DMEM) formulation contained either high glucose (4.5 g/L, catalogue number: 10569) or low glucose (1 g/L, catalogue number:
10567). RPMI-1640 was provided without sodium pyruvate and with L-glutamine (catalogue number: 11875). Phosphate Buffered Saline (PBS) contained NaCl (9 g/L), KH2PO4 (144 mg/L) and Na2HPO4-7.H2O (795 mg/L, catalogue number: 10010049). TrypLE Express™ was provided with EDTA (458 mg/L) and without Phenol Red (catalogue number: 12604021).
MRC-5 cells (human lung fibroblasts) were grown in monolayer (37 °C, 5 % CO2 and 100 % humidity) in DMEM medium (1 g/L glucose), supplemented with 10% heat-inactivated Fetal Bovine Serum (hiFBS), 2 mM L-glutamine, 100 U / mL penicillin and […]
streptomycin. […]
Cells were cultured according to ATCC recommendations and were used for the experiments while in the exponential growth phase. […]
hiFBS. Parasites were split every other day and maintained in their experimental growth phase (below 2 million parasites per mL).
Cytotoxicity was measured through the alamarBlue® assay (Thermo Fisher Scientific).[S6,S13] Briefly, 5×10^3 MRC-5 or HeLa cells were seeded in 96-wells plates (100 µL / well) in the presence of increasing concentrations of compound. After 72 hrs of incubation at 37 °C, 20 µL of alamarBlue® solution (110 ng / ml) was added to each well and cells were reincubated for 4 hrs at 37 °C. Then, 50 µL of 3 % SDS were added to each well. The plate was incubated at 37 °C for an extra hour and then analysed by fluorescence with an Infinite F200 plate reader (TECAN Austria, GmbH). The excitation wavelength was fixed at 550 nm and the emission wavelength at 590 nm. The results are expressed as the concentration of compound that reduces

[1] = test system: telo23-K+ (hybrid type human telomeric G4); assay: UV-Vis titration, telo23-K+; format: binding; settings: for Ka, telo23-K+: UV-Vis titration
Experimental: (§1) To obtain quantitative information on the binding of NDI 1 and PDI 3 to the previously assessed G4 and duplex DNA structures, ultraviolet‐visible absorbance spectroscopy (UV‐Vis) titrations were conducted (Figure 3 and S10). In all cases the ligand concentration was kept constant at 10 μM, whilst oligonucleotide was titrated in up to a final concentration of 30 μM. The observed binding isotherms were fitted to an independent/equivalent sites binding model, and binding constants (K a) were determined. […]
(§2) telo22-Na+ (antiparallel basket […]
(§3) telo23 and telo22 were selected as models for the human telomeric G-quadruplex under K+ and Na+ conditions, respectively, as they have been the subject of detailed structural studies,[S8,S9] […]
(§4) used. telo23 forms primarily a (3+1) hybrid structure under K+ conditions,[S8] whilst telo22 forms a single antiparallel fold.[S9]
The oligonucleotides were at a concentration of 5 µM and the buffers used were either potassium phosphate (100 mM, pH 7.4) for telo23-K+, EBR1-K+ and ds26-K+ or sodium phosphate (100 mM, pH 7.4) for telo22-Na+. The reported spectrum for each sample represents the average of 3 scans and is baseline corrected for the buffer used. Data processing was carried out using Prism 7 (GraphPad Software) with a 4-point second order smoothing polynomial applied to all spectra. Observed ellipticities were converted to molar ellipticity.
(§5) UV-Visible Absorbance Spectroscopy
Absorbance spectra were recorded on a Cary 60 UV-Visible (UV-Vis) spectrophotometer using a room-light immune fibre optic probe with 10 mm path length. The UV-Vis spectra were […]
were corrected for background and buffer absorbance. The oligonucleotides and buffer conditions were the same as employed in the CD experiments.
In the titrations, the concentration of ligand was fixed at 10 µM in an initial volume of 500 µL.
Aliquots of oligonucleotide were added using a microsyringe from a 100 µM stock solution in appropriate buffer containing also 10 µM ligand to maintain constant ligand concentration.
Note: the oligonucleotide solution was annealed by heating to 90 °C for 2 minutes and then cooling on ice prior to the addition of ligand (to avoid annealing in the presence of ligand).
Following addition, the solution was mixed thoroughly and the UV-visible spectrum was […]

[2] = test system: ds26-K+ (self-complementary duplex); assay: UV-Vis titration, ds26-K+; format: binding
Experimental: as §1, §2, §3, §4
(§6) The oligonucleotides were at a concentration of 5 µM and the buffers used were either potassium phosphate (100 mM, pH 7.4) for telo23-K+, EBR1-K+ and ds26-K+ or sodium phosphate (100 mM, pH 7.4) for telo22-Na+. […]
as §5
(§7) Absorbance spectra were recorded on a Cary 60 UV-Visible (UV-Vis) spectrophotometer using a room-light immune fibre optic probe with 10 mm path length. […]
(§8) were corrected for background and buffer absorbance. […]

[3] = test system: EBR1-K+ (DNA, G4) GGGCAGGGGGTGATGGGGAGGAGCCAGGG; assay: UV-Vis titration; settings: independent/equivalent sites, 10 µM ligand, DNA up to 30 µM, apparent
[4] = test system: ds26-K+ (DNA, duplex) CAATCGGATCGAATTCGATCCGATTG; assay: UV-Vis titration; settings: independent/equivalent sites, 10 µM ligand, DNA up to 30 µM, apparent
[5] = test system: telo22-Na+ (DNA, G4) AGGGTTAGGGTTAGGGTTAGGG; assay: UV-Vis titration; settings: independent/equivalent sites, 10 µM ligand, DNA up to 30 µM, apparent
[6] = test system: EBR1-K+ (mixed G4 from T. brucei); assay: UV-Vis titration, EBR1-K+; format: binding
Experimental: as §1, §2, §3, §4, §6, §5, §7, §8

[7] = test system: telo22-Na+ (antiparallel basket human telomeric G4); assay: UV-Vis titration, telo22-Na+; format: binding
Experimental: as §1, §2, §3, §4, §6, §5, §7, §8

[8] = test system: telo23-K+ (DNA, G4) TAGGGTTAGGGTTAGGGTTAGGG; assay: UV-Vis titration; settings: independent/equivalent sites, 10 µM ligand, DNA up to 30 µM, apparent
[9] = test system: FmycT-K+ (c-Myc promoter G-quadruplex, parallel); settings: 200 nM DNA, previously reported data for 1, cited from earlier work
[10] = test system: telo22-Na+ (DNA, G4) AGGGTTAGGGTTAGGGTTAGGG; assay: NMR titration; settings: 70 mM NaCl; 25 mM sodium phosphate pH 7.0, 10% D2O, 298 K; 185 µM DNA, up to 2 equivalents
[11] = test system: EBR1-K+ (DNA, G4) GGGCAGGGGGTGATGGGGAGGAGCCAGGG; assay: CD titration; settings: 20 °C, 5 µM DNA, up to 10 equivalents ligand
[12] = test system: F10T (DNA, hairpin, hexaethylene glycol (HEG) linker between 10 and 11) TATAGCTATATATAGCTATA; assay: FRET melting; settings: 10 mM K+, 90 mM Li+; 10 mM Li cacodylate; 5 µM ligand, 200 nM DNA

Row | Compound | EC50 (T. brucei) | Ka, telo23-K+ [1] | Ka, ds26-K+ [2] | Ka [3] | Ka [4] | Ka [5] | Ka, EBR1-K+ [6] | Ka, telo22-Na+ [7] | Ka [8] | ΔTm FmycT-K+ ([9]; 1 µM ligand, ref S16) | ΔTm FmycT-K+ ([9]; 5 μM ligand) | ΔTm FmycT-K+ ([9]; 10 µM ligand, ref S16) | SI (MRC5/T. brucei) (T. brucei; selectivity index from EC50 values) | selectivity for telo23-K+ G4 over EBR1-K+ G4 ([1]; ratio of Ka, UV-Vis) | selectivity for telo23-K+ G4 over ds26-K+ duplex ([1]; ratio of Ka, UV-Vis) | binding [10] | binding [11] | ΔTm [12]
1 | CN1CCN(CCCN2C(=O)c3ccc4c5c(ccc(c35)C2=O)C(=O)N(CCCN2CCN(C)CC2)C4=O)CC1 [Compound 1] | 610 ± 300 nM | 6×10^6 | 1×10^6 | 2×10^6 | 1×10^6 | 6×10^4 | 2×10^6 | 6×10^4 | 6×10^6 | 0 ± 1 °C | 7±2 °C | 13 ± 1 °C | – | – | – | – | – | –
2 | CN1CCN(CCCN2C(=O)c3ccc4c5ccc6c7c(ccc(c8ccc(c3c48)C2=O)c75)C(=O)N(CCCN2CCN(C)CC2)C6=O)CC1 [Compound 3] | 27 ± 10 nM | 2×10^6 | 5×10^4 | 3×10^5 | 5×10^4 | 8×10^5 | 3×10^5 | 8×10^5 | 2×10^6 | – | – | – | 78 | ~7 fold | 40 fold | – | – | –
3 | CN1CCN(CCCN2C(=O)c3ccc(Oc4ccc(C(C)(C)c5ccc(Oc6ccc7c(c6)C(=O)N(CCCN6CCN(C)CC6)C7=O)cc5)cc4)cc3C2=O)CC1 [Compound 9] | 33000 ± 24000 nM | – | – | – | – | – | – | – | – | – | – | – | – | – | – | – | – | –
4 | CN1CCN(CCCNC(=O)c2ccc(Oc3ccc(C(C)(C)c4ccc(Oc5ccc(C(=O)NCCCN6CCN(C)CC6)c(C(=O)NCCCN6CCN(C)CC6)c5)cc4)cc3)cc2C(=O)NCCCN2CCN(C)CC2)CC1 [Compound 11] | 2800 ± 2000 nM | – | – | – | – | – | – | – | – | – | – | – | – | – | – | yes | yes | 0±1 °C
